Values after ≈ are worked out from the molar mass of the structure shown. Values joined by “and” are separate entries in the source; they are usually repeats but may differ in a detail not shown here. Identical values can stand only once. Like-named read-outs stand apart in the source and are kept apart here.
What was measured:
[1] = ref MedChemExpress, cited from earlier work; for solubility, DMSO: in DMSO; for solubility, H2O: in H2O
Rlig1-AMP = target: T1, Rlig1-AMP (Homo sapiens, UniProt Q8N999); experiment: FRET-based high-throughput screening of inhibitors for Rlig1-AMP; assay type: biochemical; conditions: for 1-D Distance: difference of raw data w/o and w enzyme; for Raw data [w Enyzm]: with enzyme; for Raw data [w/o Enzym]: without enzyme
T1 construct: made in house; host or cells: E. coli BL21 (DE3), pET15b-Rlig1
T1 sequence (Q8N999 whole entry): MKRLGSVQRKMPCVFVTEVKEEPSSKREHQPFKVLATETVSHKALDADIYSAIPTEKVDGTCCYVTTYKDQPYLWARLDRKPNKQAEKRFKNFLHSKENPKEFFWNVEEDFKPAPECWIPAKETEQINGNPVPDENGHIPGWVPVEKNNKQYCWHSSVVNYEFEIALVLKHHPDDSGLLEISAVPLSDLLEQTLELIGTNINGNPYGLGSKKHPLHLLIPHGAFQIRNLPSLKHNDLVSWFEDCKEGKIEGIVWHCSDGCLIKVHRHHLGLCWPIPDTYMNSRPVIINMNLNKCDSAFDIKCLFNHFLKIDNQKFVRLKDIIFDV

[2] = ultrasonic/warming, ref MedChemExpress, cited from earlier work
[3] = DMSO; ref MedChemExpress; cited from earlier work

Compound | 1-D Distance (Rlig1-AMP; sheet HTS hits) | Raw data [w Enyzm] (Rlig1-AMP; sheet HTS hits) | Raw data [w/o Enzym] (Rlig1-AMP; sheet HTS hits) | solubility, DMSO [1] | solubility, DMSO [2] | 1-D Distance (Rlig1-AMP; HTS hits) | Raw data [w Enyzm] (Rlig1-AMP; HTS hits) | Raw data [w/o Enzym] (Rlig1-AMP; HTS hits) | further results
CO[C@H]1/C=C/O[C@@]2(C)Oc3c(C)c(O)c4c(O)c(c(/C=N/N5CCN(C)CC5)c(O)c4c3C2=O)NC(=O)/C(C)=C\C=C\[C@H](C)[C@H](O)[C@@H](C)[C@@H](O)[C@@H](C)[C@H](OC(C)=O)[C@@H]1C [Rifampicin] | 268 | 2212 | 2480 | 50 mg/mL (≈ 60.8 mM) |  |  |  |  | solubility, H2O [1]: 1 mg/mL (≈ 1.22 mM)
CO[C@H]1/C=C/O[C@@]2(C)Oc3c(C)c(O)c4c(O)c(c(/C=N/N5CCN(C6CCCC6)CC5)c(O)c4c3C2=O)NC(=O)/C(C)=C\C=C\[C@H](C)[C@H](O)[C@@H](C)[C@@H](O)[C@@H](C)[C@H](OC(C)=O)[C@@H]1C [Rifapentine] | 1003 | 7400 | 6397 | ≥ 50 mg/mL |  |  |  |  | solubility, H2O [1]: < 0.1 mg/mL
O=C(O)c1cc(O)c2c(c1)[C@@H]([C@H]1c3cc(C(=O)O)cc(O)c3C(=O)c3c(O[C@@H]4O[C@H](CO)[C@@H](O)[C@H](O)[C@H]4O)cccc31)c1cccc(O[C@@H]3O[C@H](CO)[C@@H](O)[C@H](O)[C@H]3O)c1C2=O [Sennoside B] |  |  |  |  | 125 mg/mL and 144.89 mM | 1108 | 3598 | 4706 | 
C[n+]1ccc(-c2c3nc(c(-c4cc[n+](C)cc4)c4ccc([nH]4)c(-c4cc[n+](C)cc4)c4nc(c(-c5cc[n+](C)cc5)c5ccc2[nH]5)C=C4)C=C3)cc1.Cc1ccc(S(=O)(=O)[O-])cc1.Cc1ccc(S(=O)(=O)[O-])cc1.Cc1ccc(S(=O)(=O)[O-])cc1.Cc1ccc(S(=O)(=O)[O-])cc1 [TMPyP4 tosylate] |  |  |  |  | 10 mg/mL and 7.33 mM | 40 | 658 | 698 | solubility, H2O ([2]; H2O): 25 mg/mL and 18.33 mM; 1-D Distance.npi (Rlig1-AMP; HTS hits, normalised value of 1-D Distance): 106.113
CC1(C)CCC(C)(C)c2cc(NC(=O)c3ccc(C(=O)O)cc3)ccc21 [Tamibarotene] |  |  |  |  | 25.5 mg/mL and 72.56 mM | 1704 | 8958 | 10662 | 
Cn1nc(-c2ccc(C(F)(F)F)cc2)nc2c(=O)n(C)c(=O)nc1-2 [Walrycin B] |  |  |  |  |  | 868 | 16245 | 17113 | 1-D Distance.npi (Rlig1-AMP; HTS hits, normalized value (npi)): 89.8871; solubility [3]: 11.5 mg/mL and 34.10 mM

Second part, led by results:

1-D Distance (Rlig1-AMP; sheet HTS hits) | Raw data [w Enyzm] (Rlig1-AMP; sheet HTS hits) | Raw data [w/o Enzym] (Rlig1-AMP; sheet HTS hits) | Compound | solubility, DMSO [1] | solubility, DMSO [2] | 1-D Distance (Rlig1-AMP; HTS hits) | Raw data [w Enyzm] (Rlig1-AMP; HTS hits) | Raw data [w/o Enzym] (Rlig1-AMP; HTS hits) | further results
157 | 13928 | 13771 | O=C1c2ccccc2-c2nc3nonc3nc21 [SMER3] | DMSO : 12.5 mg/mL (55.76 mM; Need ultrasonic) |  |  |  |  | 1-D Distance.npi (Rlig1-AMP; sheet HTS hits, MedChemExpress library): 102.522
1837 | 8934 | 10771 | CCOc1ccccc1OCCN[C@H](C)Cc1ccc(OC)c(S(N)(=O)=O)c1 [Tamsulosin] | DMSO : 100 mg/mL (244.79 mM; Need ultrasonic) |  |  |  |  | 

— article PMC11747885, “Potent inhibitors of the human RNA ligase Rlig1 highlights its role in RNA integrity maintenance under oxidative cellular stress” (Chemical Science, 2025)
